Source: patent US20050203013A1, “Methods for inhibiting vascular permeability” (priority 2002, published 2005)

Experiments:
[1] = system: chick aortic rings; test: Chick aortic ring assay; assay type: cell-based
Method: Aortic arches were dissected from day-14 chick embryos and cut into cross-sectional fragments, everted to expose the endothelium, and explanted in Matrigel. When cultured in serum-free MCDB-131 medium, endothelial cells outgrow and three-dimensional vascular channel formation occurred within […]. Free and conjugated TNP-470 were added to the culture.

[2] = system: vesiculo-vacuolar organelles and inter-endothelial junctions; test: Electron microscopy of skin venules with ferritin tracer; assay type: in vivo, SCID mice; conditions: uninjected skin or skin injected with buffer
Method: SCID mice were treated for three days with TNP-470 (30 mg/kg) or saline, following which anionic Ferritin tracer was injected i.v. into mice and 50 μl of human VEGF165 (1 ng/μl), or 50 μl of PBS were injected intradermally into pre-shaved flank skin. After 15 min, animals were euthanized by cervical dislocation. Skin test and control sites were excised and fixed by immersion for 4 hours in freshly prepared 2.0% paraformaldehyde-2.5% glutaraldehyde-0.025% calcium chloride in 0.1 M sodium cacodylate buffer, pH 7.4. Tissues were postfixed for 2 h in 1.5% sym-collidine-buffered osmium tetroxide, stained en bloc with uranyl acetate, dehydrated in a graded series of alcohols, and embedded in Spurr resin as previously described (Dvorak et al., 1996; Feng et al., 1996). Thin sections were then cut, collected on carbon-Formvar-coated single slot grids, and viewed in an electron microscope (CM10; Philips, Eindhoven, The Netherlands).

[3] = system: HMVEC-d cells; test: Cell migration assay (modified Boyden chamber); assay type: cell-based, Human
Method: The motility response of HMVEC-d cells was assayed using a modified Boyden chamber. Cells were plated in T75-cm^2 flasks at 0.5×10^6 cells per flask and allowed to grow for 48 hours (˜70% confluent) prior to the migration assay. To facilitate cell adhesion, the upper membrane of a transwell (8 μm pore; Costar) was coated with fibronectin (10 μg/ml; Becton Dickinson) overnight at 4° C. Coated membranes were rinsed with PBS and allowed to air dry immediately before use. Cells were detached by trypsinization, treated with trypsinization neutralization solution (Clonetics), and resuspended at a final concentration of […] in serum-free EBM-2 containing 0.1% BSA or free or conjugated TNP470 at equivalent concentrations of 1 ng/ml. Cells (50,000 in 100 μl) were added to the upper chamber of the transwell. Following a 2 hours incubation, EBM-2 or EBM-2 supplemented with VPF/VEGF (5 ng/ml) was added to the lower chamber and cells were allowed to migrate toward the bottom chamber for 4 hours in a humidified incubator containing 5% CO2. […] The number of migrated cells was measured using microscopy (three fields from each membrane were captured using a 10× objective), and images were captured with a CCD camera using SPOT software. Total migration per membrane was quantified from the captured images using Scion Image software (National Institutes of Health). […]

[4] = system: BCE cells; test: Junction protein staining of BCE cells treated with TNP-470; assay type: cell-based, Bovine; conditions: 3 days in culture, stimulated by VEGF or PAF
Method: BCE cells were grown on a coverslip glass in a 24-well plate (200,000 cells/well) in DMEM+10% BCS+3 ng/ml bFGF. Cells were treated with TNP-470 for 3 days in culture. Cells were stimulated with VEGF (5 ng/ml) or PAF (100 nM) for 20 min. Cells were stained for occludin, claudin, ZO-1, beta-catenin and VE-cadherin with fluorescent antibodies.

[5] = system: VEGFR-2; test: VEGFR-2 phosphorylation in HMVEC-d; assay type: cell-based, Human; conditions: 5 ng/ml for 2 hours
Method: Serum-starved (0.1% FBS in EBM-2 media for 24 hours) HMVEC-d or HUVEC were treated with 5 ng/ml TNP-470 and HPMA copolymer-TNP-470 at 37° C. for 2 hours, and then stimulated with 10 ng/ml of VEGF for 5 minutes. Stimulation was stopped by adding cold PBS. […] After washing the beads with precipitation buffer, immunoprecipitates were resuspended in 2× SDS sample buffer for Western blot analysis with an antibody against phosphorylated tyrosine (pTyr).

[6] = system: A2058 human melanoma tumor vessel permeability; test: Miles assay on tumor-bearing mice (Example 2); assay type: in vivo, SCID mice; conditions: 30 mg/kg/day for three days
Method: One of the problems with angiogenesis-dependent diseases is increased vessel permeability (due to high levels of VPF) which results in edema and loss of proteins. A decrease in vessel permeability is beneficial in those diseases. We have found, using the Miles assay ([…], et al., Cancer Res, 56:172-181 (1996)), that free and bound TNP-470 block permeability. Briefly, a dye, Evans Blue (1% in PBS), was injected i.v. to anesthesized mice. After 10 min, human recombinant VEGF165 (50 ng/50 μl) was injected intradermally into the back skin. Leakage of protein-bound dye was detected as blue spots on the underside of the back skin surrounding the injection site. After 20 min mice were euthanized. Then, the skin was excised, left in formamide for 5 days to be extracted and the solution read at 620 nm. Putative angiogenesis inhibitors such as free and conjugated TNP-470 were injected daily 3 days (30 mg/kg/day) prior to the VEGF challenge. The same was repeated on tumor-bearing mice to evaluate the effect of angiogenesis inhibitors on tumor vessel permeability.

[7] = system: U87 glioblastoma tumor blood vessel permeability; test: Miles assay on tumor-bearing mice (Example 3), U87; set-up: species or system SCID mice; conditions: mouse, in vivo
Method: Female SCID mice ( 8 weeks, 20 g) were inoculated s.c. with 5×10^6 viable U87 glioblastoma cells or viable A2058 human melanoma cells or BXPC3 pancreas adenocarcinoma cells. Female nu/nu mice were inoculated with MCF-7 or MDA-MB-231 breast carcinoma cells in the mammary fat pad. C57B1/6J were inoculated with LLC. […] blue dye was then injected i.v. and extravasation of dye assessed as above. Also, blood was withdrawn to measure VPF/VEGF levels in plasma and in tumors (n=5 from each group). Tumors (n=5 per group) were dissected, weighed and cut in half. Half of the tumor was placed in formalin and half was analyzed for VPF/VEGF protein by ELISA (see below). Formalin fixed tumors were processed for sectioning and staining with H & E, CD31, smooth muscle actin (SMA) and proliferating cell nuclear antigen (PCNA) according to the manufacturers' instructions.

CO[C@@H]1[C@H](OC(=O)NC(=O)CCl)CC[C@]2(CO2)[C@H]1[C@@]1(C)O[C@@H]1CC=C(C)C [TNP-470]
concentration showing efficacy (reduced number and length of vascular sprouts) [1]: 50 pg/mL
concentration that completely prevented outgrowth [1]: 100 pg/mL
extravasation of circulating ferritin via VVOs [2]: reduced
inhibition at 0.001 µg/mL ([3]; Homo sapiens, 1 ng/ml, 2 hours pretreatment, 4 hours migration, read-out: inhibition of chemotactic migration response to VPF/VEGF): 68%
inhibition of basal migration ([3]; absence of VPF/VEGF): 70%
effect on occludin, claudin, ZO-1, beta-catenin or VE-cadherin [4]: did not see any significant and reproducible effect
VPF/VEGF-induced phosphorylation of VEGFR-2 [5]: significantly reduced
tumor vessel permeability [6]: decreased
Evan's blue extravasation into U87 glioblastomas [7]: did not inhibit
